The source of these data is patent publication US9580390B2, “Indazole compounds as kinase inhibitors and method of treating cancer with same” (University Health Network, priority 2011, dated 2017).

Some results are limits rather than exact numbers.

For one experiment, the target named is T1, human TTK (Homo sapiens, UniProt P33981).
T1 construct: amino terminal GST fusion of full length human TTK; purchased Invitrogen
T1 sequence (P33981 1-857): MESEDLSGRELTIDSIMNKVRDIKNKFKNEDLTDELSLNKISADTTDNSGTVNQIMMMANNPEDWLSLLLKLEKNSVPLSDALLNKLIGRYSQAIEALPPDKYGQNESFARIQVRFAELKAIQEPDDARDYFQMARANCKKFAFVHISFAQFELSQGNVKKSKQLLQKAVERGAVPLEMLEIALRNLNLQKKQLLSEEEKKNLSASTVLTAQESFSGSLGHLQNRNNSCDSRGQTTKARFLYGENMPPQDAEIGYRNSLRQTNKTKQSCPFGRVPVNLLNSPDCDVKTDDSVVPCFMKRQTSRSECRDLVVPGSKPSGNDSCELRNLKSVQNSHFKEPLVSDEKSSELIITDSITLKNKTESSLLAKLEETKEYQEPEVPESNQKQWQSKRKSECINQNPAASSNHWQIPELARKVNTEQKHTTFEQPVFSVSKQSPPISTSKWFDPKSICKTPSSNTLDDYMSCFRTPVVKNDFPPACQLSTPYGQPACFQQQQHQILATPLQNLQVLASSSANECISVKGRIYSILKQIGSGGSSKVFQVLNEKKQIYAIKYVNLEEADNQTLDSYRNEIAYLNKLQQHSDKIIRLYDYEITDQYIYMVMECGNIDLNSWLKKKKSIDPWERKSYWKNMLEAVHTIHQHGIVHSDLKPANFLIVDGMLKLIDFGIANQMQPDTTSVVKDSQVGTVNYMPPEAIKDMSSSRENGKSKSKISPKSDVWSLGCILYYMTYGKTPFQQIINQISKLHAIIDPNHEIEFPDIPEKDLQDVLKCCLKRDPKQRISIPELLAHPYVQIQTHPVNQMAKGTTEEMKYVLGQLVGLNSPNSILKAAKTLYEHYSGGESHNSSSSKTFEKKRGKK
In words: TTK inhibition assay (indirect ELISA). The class given is biochemical. Conditions: read-out: TTK IC50 Range.

For experiment [1], the system named is colon cancer cells (HCT116). In words: Cancer cell line growth inhibition (SRB assay). In kind it is cell-based. Conditions: Homo sapiens, HCT-116; HCT116 colon cancer cells, SRB assay; read-out: Cancer Cell Line GI50 Range HCT116.
The test system of experiment [2] is ovarian cancer cells (PA-1). Description: Cancer cell line growth inhibition (SRB assay). In kind it is cell-based. Conditions: PA-1 ovarian cancer cells, SRB assay; read-out: Cancer Cell Line GI50 Range PA-1.

Regarding `O=C(NCC1(N2CCC(F)(F)CC2)CCCCC1)c1ccc2[nH]nc(-c3ccc(N4CCOCC4)cc3)c2c1` [Example A457, N-((1-(4,4-difluoropiperidin-1-yl)cyclohexyl)methyl)-3-(4-morpholinophenyl)-1H-indazole-5-carboxamide], on human TTK, the IC50 lay within 100 to 500 nM.
With `CC(C)C[C@H](NC(=O)c1ccc2[nH]nc(-c3ccc(N4C5CCC4CC(O)C5)cc3)c2c1)c1ccccc1F` (stereo partly drawn) [Example A518, N-((S)-1-(2-fluorophenyl)-3-methylbulyl)-3-(4-((1R,3S,5S)-3-hydroxy-8-azabicyclo[3.2.1]octan-8-yl)phenyl)-1H-indazole-5-carboxamide], on human TTK, the IC50 was less than 100 nM.
Same read-out and setting: in the case of `CC(C)C[C@H](NC(=O)c1ccc2[nH]nc(-c3ccc(N4[C@@H]5CC[C@H]4COC5)cc3)c2c1)c1ccccc1F` [Example A519, 3-(4-((1R,5S)-3-oxa-8-azabicyclo[3.2.1]octan-8-yl)phenyl)-N-((S)-1-(2-fluorophenyl)-3-methylbutyl)-1H-indazole-5-carboxamide] it was less than 100 nM.
Take `CN1CCN(c2ccc(-c3n[nH]c4ccc(NC(=O)C(c5ccsc5)N5CCCC5)cc34)cc2)C(=O)C1` (centres unmarked) [Example A94, N-(3-(4-(4-Methyl-2-oxopiperazin-1-yl)phenyl)-1H-indazol-5-yl)-2-(pyrrolidin-1-yl)-2-(thiophen-3-yl)acetamide]: on human TTK, the IC50 was greater than 500 nM.
Consider `O=C(NCC1(N2CCOCC2)CCCOC1)c1ccc2[nH]nc(-c3ccc(N4CCOCC4)cc3)c2c1` (centres unmarked) [Example A515, 3-(4-morpholinophenyl)-N-((3-morpholinotetrahydro-2H-pyran-3-yl)methyl)-1H-indazole-5-carboxamide], for which, at human TTK, the IC50 is less than 100 nM.
For `CC(C)[C@H](NC(=O)c1ccc2[nH]nc(-c3ccc(N4CC(N5CCOCC5)C4)cc3)c2c1)c1ncccc1F` [Example A522, (S)-N-(1-(3-fluoropyridin-2-yl)-2-methylpropyl)-3-(4-(3-morpholinoazetidin-1-yl)phenyl)-1H-indazole-5-carboxamide], the IC50 on human TTK is less than 100 nM.
Still for that read-out and setting: the result for `O=C(NCC1(N2CCOCC2)CCCOC1)c1ccc2[nH]nc(-c3ccc(N4[C@@H]5CC[C@H]4COC5)cc3)c2c1` (stereo partly drawn) [Example A517, 3-(4-((1R,5S)-3-oxa-8-azabicyclo[3.2.1]octan-8-yl)phenyl)-N-((3-morpholinotetrahydro-2H-pyran-3-yl)methyl)-1H-indazole-5-carboxamide] reads less than 100 nM.
The same measure, in the same setting: in the case of `O=C(NCC1(N2CCOCC2)CCCOC1)c1ccc2[nH]nc(-c3ccc(N4[C@@H]5CC[C@H]4C[C@H](O)C5)cc3)c2c1` (stereo partly drawn) [Example A516, 3-(4-((1R,3S,5S)-3-hydroxy-8-azabicyclo[3.2.1]octan-8-yl)phenyl)-N-((3-morpholinotetrahydro-2H-pyran-3-yl)methyl)-1H-indazole-5-carboxamide] it was less than 100 nM.
Still for that read-out and setting: the result for `CCN(C(=O)Nc1ccc2[nH]nc(-c3ccc(N4CCOCC4)cc3)c2c1)c1ccccc1` [Example A72, 1-ethyl-3-(3-(4-morpholinophenyl)-1H-indazol-5-yl)-1-phenylurea] reads greater than 500 nM.
Take `O=CN1CCC(Oc2ccc(-c3n[nH]c4ccc(C(=O)N[C@@H](c5ccccn5)C5CC5)cc34)cc2)CC1` [Example A203, (R)-N-(cyclopropyl(pyridin-2-yl)methyl)-3-(4-((1-formylpiperidin-4-yl)oxy)phenyl)-1H-indazole-5-carboxamide]: the GI50 in experiment [1] and in experiment [2] was 100 to 500 nM throughout.
`CN1CCC(Oc2ccc(-c3n[nH]c4ccc(C(=O)NCc5ccccc5N5CCOCC5)cc34)cc2)CC1` [Example A108, 3-(4-(1-Methylpiperidin-4-yloxy)phenyl)-N-(2-morpholinobenzyl)-1H-indazole-5-carboxamide]: the GI50 in experiment [1] and in experiment [2] was 100 to 500 nM throughout.
Turning to `O=C(NC(c1ccccc1)C1CC1)c1ccc2[nH]nc(-c3ccc(OC4CCN(CCF)CC4)cc3)c2c1` (centres unmarked) [Example A122, N-(cyclopropyl(phenyl)methyl)-3-(4-((1-(2-fluoroethyl)piperidin-4-yl)oxy)phenyl)-1H-indazole-5-carboxamide], the GI50 in experiment [1] and in experiment [2] was 100 to 500 nM in each case.
In the case of `O=C(NC(c1ccccc1)C1CC1)c1ccc2[nH]nc(-c3ccc(OCCN4CCOCC4)cc3)c2c1` (centres unmarked) [Example A140, N-(cyclopropyl(phenyl)methyl)-3-(4-(2-morpholinoethoxy)phenyl)-1H-indazole-5-carboxamide], the GI50 in experiment [1] and in experiment [2] was 100 to 500 nM in each case.
Regarding `CN1CCC(Oc2ccc(-c3n[nH]c4ccc(NC(=O)C5CCCc6ccccc65)cc34)cc2)CC1` (centres unmarked) [Example A18], the GI50 in experiment [1] and in experiment [2] was 100 to 500 nM each time.
For the compound `O=C(NC(c1ccccc1)C1CC1)c1ccc2[nH]nc(-c3ccc(N4CCC(O)CC4)cc3)c2c1` (centres unmarked) [Example A84, N-(cyclopropyl(phenyl)methyl)-3-(4-(4-hydroxypiperidin-1-yl)phenyl)-1H-indazole-5-carboxamide], the GI50 in experiment [1] is less than 100 nM; in experiment [2], 100 to 500 nM.
Consider `O=C(Nc1ccc2[nH]nc(-c3ccc(N4CCC(O)CC4)cc3)c2c1)C(c1ccccc1)C1CC1` (centres unmarked) [Example A103, 2-cyclopropyl-N-(3-(4-(4-hydroxypiperidin-1-yl)phenyl)-1H-indazol-5-yl)-2-phenylacetamide], for which the GI50 in experiment [1] and in experiment [2] was less than 100 nM in each case.
As for `CN1CCC(Oc2ccc(-c3n[nH]c4ccc(C(=O)NC(c5ccccc5Cl)C5CCCC5)cc34)cc2)CC1` (centres unmarked) [Example A199, N-((2-chlorophenyl)(cyclopentyl)methyl)-3-(4-((1-methylpiperidin-4-yl)oxy)phenyl)-1H-indazole-5-carboxamide], the GI50 in experiment [1] and in experiment [2] was 100 to 500 nM in each case.
Consider `COc1cc(-c2n[nH]c3ccc(C(=O)NC(c4ccccc4)C4CC4)cc23)ccc1OC1CCN(C=O)CC1` (centres unmarked) [Example A205, N-(cyclopropyl(phenyl)methyl)-3-(4-((1-formylpiperidin-4-yl)oxy)-3-methoxyphenyl)-1H-indazole-5-carboxamide], for which the GI50 in experiment [1] and in experiment [2] was 100 to 500 nM throughout.
As to `CN1CCC(Oc2ccc(-c3n[nH]c4ccc(NC(=O)C(c5ccsc5)N5CCCC5)cc34)cc2N(C)C)CC1` (centres unmarked) [Example A113, N-(3-(3-(dimethylamino)-4-((1-methylpiperidin-4-yl)oxy)phenyl)-1H-indazol-5-yl)-2-(pyrrolidin-1-yl)-2-(thiophen-3-yl)acetamide], the GI50 in experiment [1] and in experiment [2] was less than 100 nM throughout.
In the case of `CN1CCOc2ccc(-c3n[nH]c4ccc(NC(=O)C(c5ccsc5)N5CCCC5)cc34)cc2C1` (centres unmarked) [Example A90, N-(3-(4-methyl-2,3,4,5-tetrahydrobenzo[f][1,4]oxazepin-7-yl)-1H-indazol-5-yl)-2-(pyrrolidin-1-yl)-2-(thiophen-3-yl)acetamide], the GI50 was 100 to 500 nM in experiment [1] and greater than 500 nM in experiment [2].
Consider `COCCN1CCC(Oc2ccc(-c3n[nH]c4ccc(C(=O)N[C@H](COC)c5ccccc5)cc34)cc2)CC1` [Example A164, (S)-N-(2-methoxy-1-phenylethyl)-3-(4-((1-(2-methoxyethyl)piperidin-4-yl)oxy)phenyl)-1H-indazole-5-carboxamide], for which the GI50 in experiment [1] and in experiment [2] was 100 to 500 nM each time.
In the case of `CCc1cccc(CC)c1NC(=O)Nc1ccc2[nH]nc(-c3ccc(C4CN(C)CCO4)cc3)c2c1` (centres unmarked) [Example A124, 1-(2,6-diethylphenyl)-3-(3-(4-(4-methylmorpholin-2-yl)phenyl)-1H-indazol-5-yl)urea], the GI50 in experiment [1] and in experiment [2] was 100 to 500 nM throughout.
Regarding `O=C(NC(c1ccsc1)C1CCC1)c1ccc2[nH]nc(-c3ccc(N4CCOCC4)cc3)c2c1` (centres unmarked) [Example A123, N-(cyclobutyl(thiophen-3-yl)methyl)-3-(4-morpholinophenyl)-1H-indazole-5-carboxamide], the GI50 is 100 to 500 nM in experiment [1] and less than 100 nM in experiment [2].
As to `CO[C@@H](C(=O)Nc1ccc2[nH]nc(-c3ccc(O[C@@H]4CCN(C)C[C@@H]4F)cc3)c2c1)c1ccccc1` (relative stereo) [Example A135, (R)-N-(3-(4-(((3S,4R)-3-fluoro-1-methylpiperidin-4-yl)oxy)phenyl)-1H-indazol-5-yl)-2-methoxy-2-phenylacetamide], the GI50 in experiment [1] and in experiment [2] was 100 to 500 nM in each case.
On to `CO[C@@H](C(=O)Nc1ccc2[nH]nc(-c3ccc(OCC4CCN(C)CC4)cc3)c2c1)c1ccccc1` [Example A145, (R)-2-methoxy-N-(3-(4-((1-methylpiperidin-4-yl)methoxy)phenyl)-1H-indazol-5-yl)-2-phenylacetamide], for which the GI50 in experiment [1] and in experiment [2] was 100 to 500 nM throughout.
